Source: patent US6005007A, “Retinoids, methods for their production and use” (priority 1997, dated 1999)

Experiments:
[1] = biological target: T1, RXRα (Homo sapiens, UniProt P19793); assay: Receptor binding, RXRα; details: tritiated retinoid competition
T1 sequence (P19793 1-462): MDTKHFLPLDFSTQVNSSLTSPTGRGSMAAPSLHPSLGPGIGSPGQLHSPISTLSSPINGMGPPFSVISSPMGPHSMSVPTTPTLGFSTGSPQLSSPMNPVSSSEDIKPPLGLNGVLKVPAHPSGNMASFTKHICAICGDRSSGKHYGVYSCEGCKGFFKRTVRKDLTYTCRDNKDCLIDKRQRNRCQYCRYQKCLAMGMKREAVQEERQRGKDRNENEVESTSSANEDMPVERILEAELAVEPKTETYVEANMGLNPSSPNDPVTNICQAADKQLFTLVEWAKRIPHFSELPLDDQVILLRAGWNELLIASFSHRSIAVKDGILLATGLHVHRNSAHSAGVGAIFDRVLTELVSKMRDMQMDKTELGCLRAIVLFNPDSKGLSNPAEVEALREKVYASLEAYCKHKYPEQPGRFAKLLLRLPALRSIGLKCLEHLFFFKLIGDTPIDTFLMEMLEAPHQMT

[2] = system: RAR and RXR receptors; assay: Co-transfection assay, RAR and RXR subfamilies (summary in words); format: cell-based; details: CV-1 cells
Method: (§1) Utilizing the "cis-trans" or "co-transfection" assay described by Evans et al., Science, 240:889-95 (May 13, 1988), the disclosure of which is herein incorporated by reference, the retinoid compounds of the present invention were tested and found to have strong, specific activity as either selective RXR agonists, or as pan-agonist activators of both RAR and RXR receptors. This assay is described in further detail in U.S. Pat. Nos. 4,981,784 and 5,071,773, the disclosures of which are incorporated herein by reference.
In the co-transfection assay, a cloned cDNA for an IR (e.g., human RARα, RARβ, RXRγ) under the control of a constitutive promoter (e.g., the SV 40 promoter) is introduced by transfection (a procedure to induce cells to take up foreign genes) into a background cell substantially devoid of endogenous IRs. This introduced gene directs the recipient cells to make the IR protein of interest. A second gene is also introduced (co-transfected) into the same cells in conjunction with the IR gene. This second gene, comprising the cDNA for a reporter protein, such as firefly luciferase (LUC), controlled by an appropriate hormone responsive promoter containing a hormone response element (HRE). This reporter plasmid functions as a reporter for the transcription-modulating activity of the target IR. Thus, the reporter acts as a surrogate for the products (mRNA then protein) normally expressed by a gene under control of the target receptor and its native hormone.
The co-transfection assay can detect small molecule agonists or antagonists of target IRs. Exposing the transfected cells to an agonist ligand compound increases reporter activity in the transfected cells. This activity can be conveniently measured, e.g., by increasing luciferase production, which reflects compound-dependent, IR-mediated increases in reporter transcription. […]. Increasing concentrations of a suspected antagonist will decrease the reporter signal (e.g., luciferase production). The co-transfection assay is therefore useful to detect both agonists and antagonists of specific IRs. […]

[3] = biological target: T2, RXRγ (Mus musculus, UniProt P28705); assay: Co-transfection assay, RXRγ agonist activity; format: cell-based; details: CV-1 cells, luciferase reporter, read-out: RXRγ Pot
T2 construct: expressed in transfected cells; host or cells: CV-1 (African green monkey kidney fibroblasts)
T2 sequence (P28705 1-463): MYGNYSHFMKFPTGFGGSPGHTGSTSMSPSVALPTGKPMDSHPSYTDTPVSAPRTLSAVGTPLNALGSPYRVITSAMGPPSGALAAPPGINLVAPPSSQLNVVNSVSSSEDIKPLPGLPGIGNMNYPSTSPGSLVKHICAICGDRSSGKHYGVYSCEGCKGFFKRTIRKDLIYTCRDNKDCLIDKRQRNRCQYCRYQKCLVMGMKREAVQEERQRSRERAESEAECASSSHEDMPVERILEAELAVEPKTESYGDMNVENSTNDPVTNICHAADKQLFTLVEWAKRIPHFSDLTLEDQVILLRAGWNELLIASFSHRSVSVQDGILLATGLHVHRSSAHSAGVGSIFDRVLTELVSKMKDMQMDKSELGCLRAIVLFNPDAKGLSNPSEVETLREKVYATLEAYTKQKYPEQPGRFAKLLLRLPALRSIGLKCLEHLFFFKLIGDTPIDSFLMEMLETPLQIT

[4] = system: RAR receptors; assay: Co-transfection assay, RAR subfamily (summary in words); format: cell-based; details: CV-1 cells
Method: as §1
In the co-transfection assay, a cloned cDNA for an IR (e.g., human RARα, RARβ, RXRγ) under the control of a constitutive promoter (e.g., the SV 40 promoter) is introduced by transfection (a procedure to induce cells to take up foreign genes) into a background cell substantially devoid of endogenous IRs. This introduced gene directs the recipient cells to make the IR protein of interest. A second gene is also introduced (co-transfected) into the same cells in conjunction with the IR gene. […]
The co-transfection assay can detect small molecule agonists or antagonists of target IRs. […] This activity can be conveniently measured, e.g., by increasing luciferase production, which reflects compound-dependent, IR-mediated increases in reporter transcription. […]

Kd [1]	RXR selectivity / pan-agonist activity [2]	EC50 [3]	activity for the RAR receptors [4]	SMILES
6 nM	extremely potent RXR selective compounds	20 nM	no activity at all	CC(/C=C/CC1(c2cc(C(C)(C)C)cc3c2CCC3(C)C)CC1)=C\C(=O)O [Compound 107, (2E, 4E)-6-[1-(6-t-butyl-1,1-dimethyl-indan-4-yl)-cyclopropyl]-3-methyl hexadienoic acid]
41 nM	extremely potent RXR selective compounds	66 nM	no activity at all	CC(/C=C/CC1(c2ccc3c(c2)C(C)(C)CCC3(C)C)CCCC1)=C\C(=O)O [Compound 108, (2E, 4E)-6-[(5,5,8,8-Tetramethyl-5,6,7,8-tetrahydronaphtha-len-2-yl)cyclopentane-1-yl]-3-methyl hexadienoic acid]

SMILES	Kd [1]	RXR selectivity / pan-agonist activity [2]	EC50 [3]	activity for the RAR receptors [4]
CC(/C=C/CC1(c2ccc3c(c2)C(C)(C)CCC3(C)C)CC1)=C\C(=O)O [Compound 101, (2E, 4E)-6-[1-(5,5,8,8-Tetramethyl-5,6,7,8-tetrahydronaphtha-len-2-yl)cyclopropanyl]-3-methyl hexadienoic acid]	2 nM	pan-agonists that display superior potency profiles to that of the known pan-agonist compound 9-cis retinoic acid	14 nM	
